Measured values reported in ChEMBL document CHEMBL1909046, “DrugMatrix in vitro pharmacology data”.

Key:
[1] = target: 5-hydroxytryptamine receptor 4 (Cavia porcellus, UniProt O70528); format: cell membranes, Dunkin-Hartley, Striatum, Membrane; further: in other assays of this panel Not Active means under 50% inhibition at 10 µM
[2] = target: 5-hydroxytryptamine receptor 6 (Homo sapiens, UniProt P50406); format: cell membranes, HeLa, Membrane; further: in other assays of this panel Not Active means under 50% inhibition at 10 µM
[3] = target: Vascular endothelial growth factor receptor 1 (Homo sapiens, UniProt P17948); format: cell-based; conditions: huvec; further: in other assays of this panel Not Active means under 50% inhibition at 10 µM
[4] = DRUGMATRIX: Glutamate, AMPA radioligand binding (ligand: [3H] AMPA); format: cell membranes, Rattus norvegicus, Wistar, Cerebral cortex, Membrane; conditions: Not Active = under 50% inhibition at 10 µM
[5] = DRUGMATRIX: Imidazoline I2, Central radioligand binding (ligand: [3H] Idazoxan); format: cell membranes, Rattus norvegicus, Wistar, Cerebral cortex, Membrane; conditions: Not Active = under 50% inhibition at 10 µM
Cytochrome P450 2C19 = Cytochrome P450 2C19 (Homo sapiens, UniProt P33261); conditions: bti-tn-5b1-4; further: in other assays of this panel Not Active means under 50% inhibition at 10 µM
Cytochrome P450 3A4 = Cytochrome P450 3A4 (Homo sapiens, UniProt P08684); conditions: bti-tn-5b1-4; further: in other assays of this panel Not Active means under 50% inhibition at 10 µM
Sequence of Cytochrome P450 3A4 (P08684 whole entry): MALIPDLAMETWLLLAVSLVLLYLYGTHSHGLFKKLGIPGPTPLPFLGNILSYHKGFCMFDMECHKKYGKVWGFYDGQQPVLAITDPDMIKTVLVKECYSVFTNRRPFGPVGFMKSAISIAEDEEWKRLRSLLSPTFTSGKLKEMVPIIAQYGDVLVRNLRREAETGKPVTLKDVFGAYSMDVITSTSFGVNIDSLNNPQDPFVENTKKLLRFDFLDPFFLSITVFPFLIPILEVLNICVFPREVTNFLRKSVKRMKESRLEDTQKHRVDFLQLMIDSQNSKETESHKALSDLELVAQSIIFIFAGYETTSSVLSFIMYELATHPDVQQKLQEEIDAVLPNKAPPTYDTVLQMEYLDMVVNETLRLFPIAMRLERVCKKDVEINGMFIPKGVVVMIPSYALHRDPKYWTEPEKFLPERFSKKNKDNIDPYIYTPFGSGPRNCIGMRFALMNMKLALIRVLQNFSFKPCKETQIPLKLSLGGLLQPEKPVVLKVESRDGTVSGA

Sequence of Vascular endothelial growth factor receptor 1 (P17948 whole entry): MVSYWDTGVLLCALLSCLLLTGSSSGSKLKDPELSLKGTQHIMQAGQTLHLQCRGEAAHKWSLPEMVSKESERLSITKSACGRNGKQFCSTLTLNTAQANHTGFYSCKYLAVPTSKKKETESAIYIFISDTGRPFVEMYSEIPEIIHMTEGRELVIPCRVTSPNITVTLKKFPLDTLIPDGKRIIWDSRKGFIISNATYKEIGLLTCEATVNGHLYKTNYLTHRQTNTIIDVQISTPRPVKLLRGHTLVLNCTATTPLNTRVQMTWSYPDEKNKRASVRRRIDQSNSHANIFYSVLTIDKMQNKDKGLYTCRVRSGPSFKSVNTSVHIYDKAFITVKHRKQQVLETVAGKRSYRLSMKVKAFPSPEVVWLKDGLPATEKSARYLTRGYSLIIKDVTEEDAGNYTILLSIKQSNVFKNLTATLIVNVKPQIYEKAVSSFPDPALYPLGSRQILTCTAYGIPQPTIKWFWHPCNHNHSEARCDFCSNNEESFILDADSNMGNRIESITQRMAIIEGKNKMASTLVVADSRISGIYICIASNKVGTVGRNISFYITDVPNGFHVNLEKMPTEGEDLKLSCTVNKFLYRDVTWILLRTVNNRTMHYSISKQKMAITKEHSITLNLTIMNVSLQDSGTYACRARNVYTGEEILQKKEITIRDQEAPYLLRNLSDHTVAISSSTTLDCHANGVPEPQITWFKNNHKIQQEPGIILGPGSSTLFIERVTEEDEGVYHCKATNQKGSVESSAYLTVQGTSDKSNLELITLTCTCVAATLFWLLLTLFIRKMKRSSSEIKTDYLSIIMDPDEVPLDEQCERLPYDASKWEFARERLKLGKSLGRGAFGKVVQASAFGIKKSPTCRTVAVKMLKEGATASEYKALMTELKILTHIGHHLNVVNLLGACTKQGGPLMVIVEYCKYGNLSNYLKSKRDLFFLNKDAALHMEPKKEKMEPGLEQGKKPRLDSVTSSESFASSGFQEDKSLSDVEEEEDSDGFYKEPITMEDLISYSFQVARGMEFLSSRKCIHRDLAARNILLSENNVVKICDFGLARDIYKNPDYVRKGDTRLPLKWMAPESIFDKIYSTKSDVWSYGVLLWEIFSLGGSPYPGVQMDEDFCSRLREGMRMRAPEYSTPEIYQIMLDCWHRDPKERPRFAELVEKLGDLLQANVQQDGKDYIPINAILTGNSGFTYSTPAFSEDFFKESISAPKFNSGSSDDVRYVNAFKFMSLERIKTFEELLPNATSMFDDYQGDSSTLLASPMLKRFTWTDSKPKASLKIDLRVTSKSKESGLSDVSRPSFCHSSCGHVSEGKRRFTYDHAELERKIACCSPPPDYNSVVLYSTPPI
Sequence of Cytochrome P450 2C19 (P33261 whole entry): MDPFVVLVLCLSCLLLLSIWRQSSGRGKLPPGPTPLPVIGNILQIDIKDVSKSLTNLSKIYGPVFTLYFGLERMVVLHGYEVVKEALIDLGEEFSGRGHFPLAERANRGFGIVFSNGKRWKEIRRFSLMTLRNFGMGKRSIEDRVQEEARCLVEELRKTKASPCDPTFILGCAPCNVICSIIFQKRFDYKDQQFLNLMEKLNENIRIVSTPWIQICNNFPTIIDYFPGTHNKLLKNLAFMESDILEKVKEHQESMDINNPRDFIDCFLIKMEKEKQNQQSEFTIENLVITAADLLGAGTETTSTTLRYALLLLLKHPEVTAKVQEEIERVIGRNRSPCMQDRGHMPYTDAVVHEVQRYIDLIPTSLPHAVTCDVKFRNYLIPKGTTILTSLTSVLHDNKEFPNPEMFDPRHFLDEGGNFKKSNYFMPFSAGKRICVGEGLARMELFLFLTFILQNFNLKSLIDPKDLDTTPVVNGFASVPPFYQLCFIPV
Sequence of 5-hydroxytryptamine receptor 6 (P50406 whole entry): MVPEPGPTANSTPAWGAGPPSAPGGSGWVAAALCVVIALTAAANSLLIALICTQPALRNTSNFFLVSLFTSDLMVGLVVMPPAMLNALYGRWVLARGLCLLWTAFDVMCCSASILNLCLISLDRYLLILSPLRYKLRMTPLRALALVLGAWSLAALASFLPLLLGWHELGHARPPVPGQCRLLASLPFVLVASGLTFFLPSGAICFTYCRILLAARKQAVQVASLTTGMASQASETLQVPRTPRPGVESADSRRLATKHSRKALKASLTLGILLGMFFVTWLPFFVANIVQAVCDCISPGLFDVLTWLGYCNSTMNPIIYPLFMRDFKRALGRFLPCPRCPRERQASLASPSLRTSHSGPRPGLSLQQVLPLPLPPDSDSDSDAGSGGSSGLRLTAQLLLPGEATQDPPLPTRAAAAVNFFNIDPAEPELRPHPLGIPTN
Sequence of 5-hydroxytryptamine receptor 4 (O70528 whole entry): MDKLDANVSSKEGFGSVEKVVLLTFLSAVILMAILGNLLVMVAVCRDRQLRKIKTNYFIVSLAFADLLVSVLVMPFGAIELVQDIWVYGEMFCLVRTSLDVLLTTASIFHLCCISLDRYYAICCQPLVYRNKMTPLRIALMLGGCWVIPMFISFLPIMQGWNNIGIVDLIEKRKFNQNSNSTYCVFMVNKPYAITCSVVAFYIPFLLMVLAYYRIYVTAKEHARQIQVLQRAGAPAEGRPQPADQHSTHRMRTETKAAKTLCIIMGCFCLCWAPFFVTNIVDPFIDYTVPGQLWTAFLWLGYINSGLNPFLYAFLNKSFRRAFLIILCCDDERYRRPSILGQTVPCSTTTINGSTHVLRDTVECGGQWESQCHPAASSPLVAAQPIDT

## Oc1ncnc2[nH]ncc12 [ALLOPURINOL]
[1]
  IC50: Not Active
[2]; hela
  IC50: Not Active
[3]
  IC50: Not Active
[4]
  IC50: Not Active
  Ki: Not Active
[5]
  IC50: Not Active
  Ki: Not Active
Cytochrome P450 2C19
  IC50: Not Active
  Ki: Not Active
Cytochrome P450 3A4
  IC50: Not Active
  Ki: Not Active

## Cc1cc(C(C)(C)C)c(O)c(C)c1CC1=NCCN1 [OXYMETAZOLINE]
[1]
  IC50: Not Active
[2]; read-out: IC50
  IC50: 1670 nM
[2]; read-out: Ki
  Ki: 775 nM
[3]
  IC50: Not Active
[4]
  IC50: Not Active
  Ki: Not Active
[5]; read-out: IC50
  IC50: 27 nM
[5]; read-out: Ki
  Ki: 18 nM
Cytochrome P450 2C19
  IC50: Not Active
  Ki: Not Active
Cytochrome P450 3A4
  IC50: Not Active
  Ki: Not Active

## CC(C)Cn1cnc2c(N)nc3ccccc3c21 [IMIQUIMOD]
[1]
  IC50: Not Active
[2]; hela
  IC50: Not Active
[3]
  IC50: Not Active
[4]
  IC50: Not Active
  Ki: Not Active
[5]
  IC50: Not Active
  Ki: Not Active
Cytochrome P450 2C19
  IC50: Not Active
  Ki: Not Active
Cytochrome P450 3A4
  IC50: Not Active
  Ki: Not Active
